We go through 20 compounds from patent publication US8202865B2, “Oxadiazole derivatives” (Merck Serono SA, priority 2007, dated 2012).

Structures can show the parent of a compound that is named as a salt. Where only a bound is given, the exact number is not on record here.

Experiment [1] deals with T1, S1P1 (Homo sapiens, UniProt P21453).
T1 construct: expressed in transfected cells; host or cells: CHO cells (membranes)
In words: Receptor binding assay, [33P]sphingosine 1-phosphate, membranes, WGA SPA beads. Conditions: membranes from CHO cells expressing S1P1; 25 pM [33P]S1P; 60 min RT. Summed up:
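CHO-cell membranes expressing S1P1 incubated with 25 pM [33P]S1P in 50 mM HEPES pH 7.5, 5 mM MgCl2, 100 mM NaCl, 0.4% fatty acid-free BSA with WGA SPA beads for 60 min at RT. Bound radioactivity counted by scintillation proximity; specific binding defined using 1000-fold excess unlabeled S1P.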

For experiment [2], the target named is T1, S1P1. The experiment can be described thus: 35S-GTPγS binding, S1P1 membranes. The class given is biochemical. Conditions: membranes from CHO cells expressing S1P1; 60 min 30° C. The gist of the method:
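CHO-cell membranes expressing S1P1 or S1P3 (1-10 μg) incubated with compounds in 20 mM HEPES pH 7.4, 10 mM MgCl2, 140 mM NaCl, saponin, 0.2% BSA, 1.7 μM GDP and [35S]-GTPγS (20 μl of 1.5 nM added), 60 min at 30° C. Bound radioactivity expressed as % of S1P activation.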
Background: GTPγS resists hydrolysis and so accumulates on activated G proteins.

The next experiment has as its target T2, S1P3 (Homo sapiens, UniProt Q99500).
T2 construct: expressed in transfected cells; host or cells: CHO cells (membranes)
In words: 35S-GTPγS binding, S1P3 membranes. The class given is biochemical. Conditions: membranes from CHO cells expressing S1P3; 60 min 30° C. On the procedure: Receptor binding assay: Membranes were prepared from CHO cells expressing S1P1 or S1P3 for use in ligand and […] binding studies. Cells were suspended in 50 mM TRIS, pH 7.4, 2 mM EDTA, 250 mM Sucrose (buffer A) and 1× Complete protease inhibitor cocktail (Roche), and disrupted at 4° C. by N2 decompression using a cell disruption bomb (Parr Instrument). Following centrifugation at 1000 RPM for 10 min at 4° C., the supernatant was suspended in buffer A and centrifuged again at 19000 RPM for 60 min at 4° C. The pellet was then suspended in 10 mM HEPES, pH 7.4, 1 mM EDTA, 250 mM Sucrose (Buffer B), and 1× Complete EDTA-free protease inhibitor cocktail and homogenized using a potter. Membranes were flash frozen in liquid N2 and stored at −80° C. [33P]sphingosine 1-phosphate (3000 Ci/mmol; American Radiolabeled Chemicals, Inc.) was added to test compounds in DMSO. Membranes and WGA SPA beads (GE Healthcare) were added to give a final volume of 100 μl in 96-well plates with assay concentrations of 25 pM or 10 pM [33P]sphingosine 1-phosphate (respectively for S1P1 or S1P3), 50 mM HEPES, pH 7.5, 5 mM MgCl2, 100 mM NaCl, 0.4% fatty acid-free BSA, 1-5 μg/well of proteins and 100 μg/well of WGA SPA beads. Binding was performed for 60 min at RT on a shaker and bound radioactivity was measured on a PerkinElmer 1450 MicroBeta counter. Specific binding was calculated by subtracting remaining radioactivity in the presence of 1000-fold excess of unlabeled S1P. Binding data were analyzed using the GraphPad Prism program.
Measurements of ^35S-GTPγS Binding: Membranes (1 to 10 μg protein) prepared as described above, were incubated in 96-well Scintiplates (PerkinElmer) with test compounds diluted in DMSO, in 180 μl of 20 mM HEPES, pH 7.4, 10 mM MgCl2, 2 μg/well Saponin, 0.2% fatty acid free BSA (Assay buffer), 140 mM NaCl and 1.7 μM GDP. The assay was initiated with the addition of 20 μl of 1.5 nM [35S]-GTPγS (1100 Ci/mmol; GE Healthcare) in assay buffer. After 60 min incubation at 30° C. on a shaker, plates were centrifuged for 10 min at 2000 RPM. Supernatant was discarded and membrane bound radioactivity was measured on a PerkinElmer 1450 MicroBeta counter. Triplicate samples were averaged and expressed as % response relative to S1P activation in absence of compound (n=2).

T1 sequence (P21453 whole entry, species assumed): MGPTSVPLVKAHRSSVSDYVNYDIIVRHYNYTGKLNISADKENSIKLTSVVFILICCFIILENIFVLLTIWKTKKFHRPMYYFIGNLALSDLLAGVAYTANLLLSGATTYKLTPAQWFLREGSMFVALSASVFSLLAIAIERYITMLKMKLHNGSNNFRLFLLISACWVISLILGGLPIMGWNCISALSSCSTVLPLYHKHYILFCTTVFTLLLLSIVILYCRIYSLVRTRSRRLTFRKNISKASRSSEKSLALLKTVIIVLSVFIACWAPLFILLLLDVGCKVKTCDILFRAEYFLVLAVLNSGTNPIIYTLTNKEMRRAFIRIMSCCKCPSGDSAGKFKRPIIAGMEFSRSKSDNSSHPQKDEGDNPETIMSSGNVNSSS
T2 sequence (Q99500 whole entry, species assumed): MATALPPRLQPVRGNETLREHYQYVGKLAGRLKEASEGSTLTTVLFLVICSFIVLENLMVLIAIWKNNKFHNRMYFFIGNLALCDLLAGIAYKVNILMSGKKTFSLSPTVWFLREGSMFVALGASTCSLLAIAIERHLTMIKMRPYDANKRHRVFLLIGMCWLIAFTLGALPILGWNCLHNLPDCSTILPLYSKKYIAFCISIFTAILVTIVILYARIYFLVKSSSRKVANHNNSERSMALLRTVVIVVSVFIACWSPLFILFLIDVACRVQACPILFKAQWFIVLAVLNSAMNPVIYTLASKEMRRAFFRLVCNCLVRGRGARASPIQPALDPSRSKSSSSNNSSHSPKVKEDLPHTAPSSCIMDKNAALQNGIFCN

In general, Ki refers to a measure of affinity in units of concentration, obtained from inhibition or displacement. As a reminder, the EC50 is the concentration that produces a half-maximal response. High values mean a less potent agent, low ones a more potent agent. Take `CC1CCCCN1c1ccc(-c2nc(-c3ccc(C(=O)O)c(F)c3)no2)cc1NS(=O)(=O)N(C)C` (stereo not drawn) [Example 73, 4-{5-[3-{[(dimethylamino)sulfonyl]amino}-4-(2-methylpiperidin-1-yl)phenyl]-1,2,4-oxadiazol-3-yl}-2-fluorobenzoic acid]: at S1P1 [1], the Ki is 213 nM. Also, the results for the EC50 on S1P1 [2] and at S1P3 were 122 nM and 2000 nM, respectively.

On to `CCCS(=O)(=O)Nc1cc(-c2nc(-c3ccc(C(=O)O)c(F)c3)no2)ccc1N1CCCCC1C` (stereo not drawn) [Example 74, 2-fluoro-4-(5-{4-(2-methylpiperidin-1-yl)-3-[(propylsulfonyl)amino]phenyl}-1,2,4-oxadiazol-3-yl)benzoic acid], for which the inhibition constant (Ki) on S1P1 [1] was determined as 443 nM. Further, the concentration giving a half-maximal response (EC50) at S1P1 [2] was determined as 408 nM; on S1P3 it was 1770 nM.

At S1P1 [1], `Cc1ccccc1-c1ccc(-c2nc(-c3ccc(C(=O)O)c(F)c3)no2)cc1CN1CCOCC1` [Example 75, 2-fluoro-4-{5-[2′-methyl-2-(morpholin-4-ylmethyl)biphenyl-4-yl]-1,2,4-oxadiazol-3-yl}benzoic acid, Trifluoroacetic acid salt] showed a Ki of 177 nM. The concentration giving a half-maximal response (EC50) at S1P1 [2] was 182 nM; on S1P3, 1350 nM.

Consider `CCc1ccccc1-c1ccc(-c2nc(-c3ccc(C(=O)O)c(F)c3)no2)cc1COC` [Example 78, 4-{5-[2′-ethyl-2-(methoxymethyl)biphenyl-4-yl]-1,2,4-oxadiazol-3-yl}-2-fluorobenzoic acid], for which the Ki on S1P1 [1] came to 2 nM. Also, the values for the EC50 on S1P1 [2] and at S1P3 were 15 nM and 3030 nM, respectively.

Consider `COCc1cc(-c2nc(-c3ccc(C(=O)O)c(F)c3)no2)ccc1-c1ccccc1OC` [Example 79, 2-fluoro-4-{5-[2′-methoxy-2-(methoxymethyl)biphenyl-4-yl]-1,2,4-oxadiazol-3-yl}benzoic acid], for which, on S1P1 [1], affinity was put at a Ki of 74 nM. The EC50 was 208 nM at S1P1 [2] and above 20000 nM on S1P3.

As for `COCc1cc(-c2nc(-c3ccc(C(=O)O)c(F)c3)no2)ccc1-c1ccccc1F` [Example 81, 2-fluoro-4-{5-[2′-fluoro-2-(methoxymethyl)biphenyl-4-yl]-1,2,4-oxadiazol-3-yl}benzoic acid], on S1P1 [1], the affinity, expressed as Ki, was 28 nM. The results for the EC50 at S1P1 [2] and on S1P3 were 115 nM and 2780 nM, respectively.

Consider `COCc1cc(-c2nc(-c3ccc(C(=O)O)c(F)c3)no2)ccc1-c1cc(F)ccc1C` [Example 84, 2-fluoro-4-{5-[5′-fluoro-2-(methoxymethyl)-2′-methylbiphenyl-4-yl]-1,2,4-oxadiazol-3-yl}benzoic acid], for which affinity on S1P1 [1] was put at a Ki of 55 nM. Also, the EC50 is 34 nM at S1P1 [2] and 2800 nM at S1P3.

Take `COCc1cc(-c2nc(-c3ccc(C(=O)O)c(F)c3)no2)ccc1-c1ccccc1C(F)(F)F` [Example 86, 2-fluoro-4-{5-[2-(methoxymethyl)-2′-(trifluoromethyl)biphenyl-4-yl]-1,2,4-oxadiazol-3-yl}benzoic acid]: at S1P1 [1], the Ki was found to be 48 nM. Besides, the EC50 at S1P1 [2] is 155 nM; on S1P3, above 20000 nM.

Compound `COCc1cc(-c2nc(-c3cccc(C(=O)O)c3)no2)ccc1-c1ccccc1C` [Example 92, 3-{5-[2-(methoxymethyl)-2′-methylbiphenyl-4-yl]-1,2,4-oxadiazol-3-yl}benzoic acid] came in with a Ki at S1P1 [1] of 37 nM. For the same compound, the EC50 was determined as 63 nM on S1P1 [2] and 1250 nM on S1P3.

As for `COCc1cc(-c2nc(-c3ccc(C(=O)O)c(F)c3)no2)ccc1-c1cscc1C` [Example 93, 2-fluoro-4-{5-[3-(methoxymethyl)-4-(4-methyl-3-thienyl)phenyl]-1,2,4-oxadiazol-3-yl}benzoic acid], the inhibition constant (Ki) on S1P1 [1] turned out to be 10 nM. Besides, the EC50 at S1P1 [2] turned out to be 18 nM; on S1P3, 1380 nM.

As to `COCc1cc(-c2nc(-c3ccc(C(=O)O)c(F)c3)no2)ccc1-c1cccc(C)c1C` [Example 95, 2-fluoro-4-{5-[2-(methoxymethyl)-2′,3′-dimethylbiphenyl-4-yl]-1,2,4-oxadiazol-3-yl}benzoic acid], the inhibition constant Ki at S1P1 [1] came to 16 nM. The EC50 at S1P1 [2] stood at 48 nM; at S1P3, 4960 nM.

At S1P1 [1], `COCc1cc(-c2nc(-c3cc(F)c(C(=O)O)cc3F)no2)ccc1-c1ccccc1C` [Example 97, 2,5-difluoro-4-{5-[2-(methoxymethyl)-2′-methylbiphenyl-4-yl]-1,2,4-oxadiazol-3-yl}benzoic acid] returned a Ki of 8 nM. In addition, the figures for the EC50 at S1P1 [2] and on S1P3 were 64 nM and 1940 nM, respectively.

`CCOc1cc(-c2nc(-c3ccc(C(=O)O)c(F)c3)no2)ccc1-c1ccccc1C` [Example 102, 4-[5-(2-ethoxy-2′-methylbiphenyl-4-yl)-1,2,4-oxadiazol-3-yl]-2-fluorobenzoic acid] gave a Ki at S1P1 [1] of 11 nM. In addition, the EC50 was determined as 58 nM at S1P1 [2] and 1760 nM at S1P3.

As to `COCc1cc(-c2nc(-c3ccc(C(=O)O)c(F)c3)no2)ccc1N1CCCCC1C` (stereo not drawn) [Example 114, 2-fluoro-4-{5-[3-(methoxymethyl)-4-(2-methylpiperidin-1-yl)phenyl]-1,2,4-oxadiazol-3-yl}benzoic acid], the Ki on S1P1 [1] was determined as 2.7 nM. For the same compound, the EC50 was 13 nM at S1P1 [2] and 2810 nM on S1P3.

Turning to `CCOC(=O)C1(NC(=O)c2ccc(-c3noc(-c4ccc(-c5ccccc5C)c(COC)c4)n3)cc2F)CC1` [Example 118, Ethyl 1-[(2-fluoro-4-{5-[2-(methoxymethyl)-2′-methylbiphenyl-4-yl]-1,2,4-oxadiazol-3-yl}benzoyl)amino]cyclopropanecarboxylate], affinity on S1P1 [1] was put at a Ki of 2 nM. The EC50 amounted to 7 nM at S1P1 [2] and 2160 nM at S1P3.

For the compound `COCc1cc(-c2nc(-c3ccc(C(=O)NCCC(=O)O)c(F)c3)no2)ccc1-c1ccccc1C` [Example 119, N-(2-fluoro-4-{5-[2-(methoxymethyl)-2′-methylbiphenyl-4-yl]-1,2,4-oxadiazol-3-yl}benzoyl)-beta-alanine], the Ki on S1P1 [1] was found to be 2 nM. Besides, the results for the EC50 on S1P1 [2] and at S1P3 were 7.3 nM and 502 nM, respectively.

Turning to `COCc1cc(-c2nc(-c3ccc(C(=O)NC(C)CC(=O)O)c(F)c3)no2)ccc1-c1ccccc1C` (stereo not drawn) [Example 123, 3-[(2-fluoro-4-{5-[2-(methoxymethyl)-2′-methylbiphenyl-4-yl]-1,2,4-oxadiazol-3-yl}benzoyl)amino]butanoic acid], at S1P1 [1], the Ki is 4 nM. In addition, the EC50 came out at 37.3 nM on S1P1 [2] and 1210 nM on S1P3.

With `COCc1cc(-c2nc(-c3ccc(C(=O)NCC(=O)O)c(F)c3)no2)ccc1-c1ccccc1C` [Example 124, N-(2-fluoro-4-{5-[2-(methoxymethyl)-2′-methylbiphenyl-4-yl]-1,2,4-oxadiazol-3-yl}benzoyl)glycine], the Ki at S1P1 [1] worked out at 2 nM. The EC50 was 22 nM on S1P1 [2] and 1000 nM on S1P3.

The compound `COCc1cc(-c2nc(-c3ccc(C(=O)NCCCC(=O)O)c(F)c3)no2)ccc1-c1ccccc1C` [Example 127, 4-[(2-fluoro-4-{5-[2-(methoxymethyl)-2′-methylbiphenyl-4-yl]-1,2,4-oxadiazol-3-yl}benzoyl)amino]butanoic acid] displayed a Ki on S1P1 [1] of 2.1 nM. Moreover, the EC50 at S1P1 [2] turned out to be 6 nM; on S1P3 it was 1220 nM.

As to `COCc1cc(-c2nc(-c3cccc(CN(C)CC(=O)O)c3)no2)ccc1-c1ccccc1C` [Example 141, N-(3-{5-[2-(methoxymethyl)-2′-methylbiphenyl-4-yl]-1,2,4-oxadiazol-3-yl}benzyl)-N-methylglycine, Hydrochloride salt], at S1P1 [1], the Ki was determined as 1.4 nM. The EC50 was 0.85 nM on S1P1 [2] and 621 nM at S1P3.
